Source: ChEMBL document CHEMBL5131399, “Broadening antifungal spectrum and improving metabolic stablity based on a scaffold strategy: Design, synthesis, and evaluation of novel 4-phenyl-4,5-dihydrooxazole derivatives as potent fungistatic and fungicidal reagents” (Eur J Med Chem, 2022)
pIC50: −log10 of the molar value. Values after ≈ are worked out from the molar mass of the structure shown.

How the values were obtained:
Candida albicans [1] = assay: Antifungal activity against Candida albicans ATCC SC5314 assessed as fungal growth inhibition by NCCLS protocol based method; type: functional
Cryptococcus neoformans = assay: Antifungal activity against Cryptococcus neoformans CGMCC 2.3161 assessed as fungal growth inhibition by NCCLS protocol based method; type: functional
Nakaseomyces glabratus = assay: Antifungal activity against Candida glabrata clinical isolate assessed as fungal growth inhibition by NCCLS protocol based method; type: functional
[2] = Metabolic stability in human liver microsomes assessed as half life preincubated for 10 mins followed by NADPH addition and measured after 5 to 60 mins by LC-MS/MS analysis; type: ADME, Microsome; settings: time 15-70 min
[3] = Metabolic stability in human liver microsomes assessed as compound remaining preincubated for 10 mins followed by NADPH addition and measured at 60 mins by LC-MS/MS analysis; type: ADME, Microsome; settings: time 70 min, read-out: Stability
Candida albicans [4] = assay: Antifungal activity against Candida albicans CPCC400616 assessed as fungal growth inhibition by NCCLS protocol based method; type: functional
Pichia kudriavzevii = assay: Antifungal activity against Candida krusei GIM2.1 assessed as fungal growth inhibition by NCCLS protocol based method; type: functional
[5] = Stability in human plasma assessed as compound remaining measured at 60 mins by LC/MS-MS analysis; type: ADME, cell-free; settings: read-out: Stability
Candida parapsilosis = assay: Antifungal activity against Candida parapsilosis GIM2.190 assessed as fungal growth inhibition by NCCLS protocol based method; type: functional; settings: Lodderomyces parapsilosis
[6] = Stability in human plasma assessed as half life measured at 120 mins by LC/MS-MS analysis; type: ADME, cell-free
Candida tropicalis = assay: Antifungal activity against Candida tropicalis CGMCC 2.3739 assessed as fungal growth inhibition by NCCLS protocol based method; type: functional
[7] = Metabolic stability in human microsomes assessed as intrinsic clearance preincubated for 10 mins followed by NADPH addition and measured after 5 to 60 mins by LC-MS/MS analysis; type: ADME, Microsome; settings: time 15-70 min
[8] = Stability in human plasma assessed as compound remaining measured at 120 mins by LC/MS-MS analysis; type: ADME, cell-free; settings: read-out: Stability
Aspergillus fumigatus = assay: Antifungal activity against Aspergillus fumigatus CGMCC3.7795 assessed as fungal growth inhibition by NCCLS protocol based method; type: functional
A549 = assay: Cytotoxicity against human A549 cells assessed as inhibition of cell growth incubated for 4 hrs by MTT assay; type: functional, cell-based; settings: A549, 4 h
HepG2 = assay: Cytotoxicity against human HepG2 cells assessed as inhibition of cell growth incubated for 4 hrs by MTT assay; type: functional, cell-based; settings: HepG2, 4 h
Candida albicans [9] = assay: Antifungal activity against FLC-resistant Candida albicans 904 assessed as fungal growth inhibition by NCCLS protocol based method; type: functional
Candida albicans [10] = assay: Antifungal activity against FLC-resistant Candida albicans 632 assessed as fungal growth inhibition by NCCLS protocol based method; type: functional
[11] = Half life in Sprague-Dawley rat at 3 mg/kg, iv measured after 24 hrs by LC-MS/MS analysis; type: ADME, organism-based; settings: in vivo
Candida albicans [12] = assay: Antifungal activity against FLC-resistant Candida albicans 901 assessed as fungal growth inhibition by NCCLS protocol based method; type: functional
Candida albicans [13] = assay: Antifungal activity against FLC-resistant Candida albicans CaR assessed as fungal growth inhibition by NCCLS protocol based method; type: functional
[14] = AUClast in Sprague-Dawley rat at 10 mg/kg, po measured after 24 hrs by LC-MS/MS analysis; type: ADME, organism-based; set-up: dose 10 mg/kg, time 24 hrs, route po; settings: in vivo
[15] = AUClast in Sprague-Dawley rat at 3 mg/kg, iv measured after 24 hrs by LC-MS/MS analysis; type: ADME, organism-based; set-up: time 24 hrs, dose 3 mg/kg, route iv; settings: in vivo
Candida albicans [16] = assay: Fungicidal activity against Candida albicans CPCC400616 assessed as minimum fungicidal concentration incubated for 48 hrs; type: functional
Candida albicans [17] = assay: […] for fungicidal activity against Candida albicans CPCC400616; type: functional
Candida albicans [18] = assay: Antibiofilm activity against FLC-resistant Candida albicans CPCC400616 assessed as assessed as inhibition of biofilm formation measured at 24 hrs by XTT reduction assay; type: functional
MCF7 = assay: Cytotoxicity against human MCF7 cells assessed as inhibition of cell growth incubated for 4 hrs by MTT assay; type: functional, cell-based; settings: MCF7, 4 h
Candida albicans [19] = assay: Antifungal activity against FLC-resistant Candida albicans 100 assessed as fungal growth inhibition by NCCLS protocol based method; type: functional
[20] = Oral bioavailability in Sprague-Dawley rat at 10 mg/kg measured measured after 24 hrs by LC-MS/MS analysis; type: ADME, organism-based; settings: in vivo
Candida albicans [21] = assay: Fungicidal activity against Candida albicans CPCC400616 assessed as minimum inhibitory concentration incubated for 48 hrs; type: functional
Candida albicans [22] = assay: Antifungal activity against FLC-resistant Candida albicans 311 assessed as fungal growth inhibition by NCCLS protocol based method; type: functional
Candida albicans [23] = assay: Fungicidal activity against Candida albicans CPCC400616 assessed as reduction in colony forming units at 8 times MIC incubated for 24 hrs by time kill assay; type: functional
[24] = Cytotoxicity against human HEK293T cells assessed as inhibition of cell growth incubated for 4 hrs by MTT assay; type: toxicity, cell-based, HEK-293T
Candida albicans [25] = assay: Antibiofilm activity against FLC-resistant Candida albicans CPCC400616 assessed as assessed as inhibition of biofilm formation measured at 6 hrs by XTT reduction assay; type: functional
Candida albicans [26] = assay: Antibiofilm activity against FLC-resistant Candida albicans CPCC400616 assessed as assessed as inhibition of biofilm formation measured at 18 hrs by XTT reduction assay; type: functional
Candida albicans [27] = assay: Antibiofilm activity against FLC-resistant Candida albicans CPCC400616 assessed as assessed as inhibition of biofilm formation measured at 3 hrs by XTT reduction assay; type: functional
[28] = Half life in Sprague-Dawley rat at 10 mg/kg, po measured after 24 hrs by LC-MS/MS analysis; type: ADME, organism-based; settings: in vivo
Candida albicans [29] = assay: Antifungal activity against FLC-resistant Candida albicans 103 assessed as fungal growth inhibition by NCCLS protocol based method; type: functional
Candida albicans [30] = assay: Fungicidal activity against Candida albicans CPCC400616 assessed as reduction in colony forming units at 2 to 8 times MIC incubated for 24 hrs by time kill assay; type: functional, organism-based; settings: DDE = dose-dependent effect

SMILES | MIC (Candida albicans [1]) [µg/mL] | MIC (Cryptococcus neoformans) [µg/mL] | MIC (Nakaseomyces glabratus) [µg/mL] | half-life [2] [h] | remaining at 1 h [3] [%] | MIC (Candida albicans [4]) [µg/mL] | MIC (Pichia kudriavzevii) [µg/mL] | remaining at 1 h [5] [%] | MIC (Candida parapsilosis) [µg/mL] | half-life [6] [h] | MIC (Candida tropicalis) [µg/mL] | CLint [7] [µL/min/mg] | remaining at 2 h [8] [%] | MIC (Aspergillus fumigatus) [µg/mL] | pIC50 (A549) | pIC50 (HepG2) | MIC (Candida albicans [9]) [µg/mL] | MIC (Candida albicans [10]) [µg/mL] | MIC (Candida albicans [12]) [µg/mL] | MIC (Candida albicans [13]) [µg/mL] | further results
c1ccc(-c2ccc(C3=NC(Cn4ccnc4)(c4ccccc4)CO3)s2)cc1 (configuration not stated) | 1 (≈ 2.59 µM) | 2 (≈ 5.19 µM) | 16 (≈ 41.5 µM) | 0.837 | 41.3 | 1 (≈ 2.59 µM) | 16 (≈ 41.5 µM) | 93.1 | 16 (≈ 41.5 µM) | > 4.8 | 4 (≈ 10.4 µM) | 27.6 | 89.5 | 8 (≈ 20.8 µM) |  |  |  |  |  |  | 
Cc1ccc(C(=O)C(Cn2ccnc2)NC(=O)c2ccc(-c3ccc(Cl)cc3)s2)cc1 (configuration not stated) |  |  |  | 0.31 | 9.3 |  |  |  |  |  |  | 74.6 |  |  |  |  |  |  |  |  | 
Fc1ccc(C2(Cn3ccnc3)COC(c3ccc(-c4ccccc4F)s3)=N2)cc1 (configuration not stated) | 0.03 (≈ 0.0712 µM) | 0.125 (≈ 0.297 µM) | 0.06 (≈ 0.142 µM) | 1.18 | 49.7 | 0.03 (≈ 0.0712 µM) | 0.25 (≈ 0.593 µM) | 98.7 | 0.25 (≈ 0.593 µM) | > 4.8 | 0.03 (≈ 0.0712 µM) | 19.7 | 101 | 0.25 (≈ 0.593 µM) | < 4.30 | 4.77 | 1 (≈ 2.37 µM) | 0.5 (≈ 1.19 µM) | 0.125 (≈ 0.297 µM) | 0.25 (≈ 0.593 µM) | half-life [11]: 1.02 h; AUC(0-t) at 24 h [14]: 466 ng·h/mL; AUC(0-t) at 24 h [15]: 925 ng·h/mL; MFC (Candida albicans [16]): 0.125 µg/mL (≈ 0.297 µM); Ratio (Candida albicans [17]): 4; MIC50 (Candida albicans [18]): 8 µg/mL (≈ 19 µM); pIC50 (MCF7): < 4.30; MIC (Candida albicans [19]): 0.5 µg/mL (≈ 1.19 µM); bioavailability [20]: 15.1%; MIC (Candida albicans [21]): 0.03 µg/mL (≈ 0.0712 µM); MIC (Candida albicans [22]): 0.125 µg/mL (≈ 0.297 µM); Activity (Candida albicans [23]): 2 log10CFU/ml; IC50 at 4 h [24]: 14.2 µM; MIC50 (Candida albicans [25]): 1 µg/mL (≈ 2.37 µM); MIC50 (Candida albicans [26]): 2 µg/mL (≈ 4.75 µM); MIC50 (Candida albicans [27]): 0.125 µg/mL (≈ 0.297 µM); half-life [28]: 4.44 h; MIC (Candida albicans [29]): 0.25 µg/mL (≈ 0.593 µM); Activity (Candida albicans [30]): Dde
Fc1ccc(C2(Cn3ccnc3)COC(c3ccc(-c4ccccc4)s3)=N2)cc1 (configuration not stated) | 0.06 (≈ 0.149 µM) | 0.5 (≈ 1.24 µM) | 0.125 (≈ 0.31 µM) |  |  | 0.06 (≈ 0.149 µM) | 0.125 (≈ 0.31 µM) |  | 0.25 (≈ 0.62 µM) |  | 0.06 (≈ 0.149 µM) |  |  | 4 (≈ 9.91 µM) | < 4.30 | 4.98 | 0.25 (≈ 0.62 µM) | 1 (≈ 2.48 µM) | 0.25 (≈ 0.62 µM) | 1 (≈ 2.48 µM) | MFC (Candida albicans [16]): 0.5 µg/mL (≈ 1.24 µM); Ratio (Candida albicans [17]): 8; MIC50 (Candida albicans [18]): 16 µg/mL (≈ 39.7 µM); pIC50 (MCF7): < 4.30; MIC (Candida albicans [19]): 0.5 µg/mL (≈ 1.24 µM); MIC (Candida albicans [21]): 0.06 µg/mL (≈ 0.149 µM); MIC (Candida albicans [22]): 1 µg/mL (≈ 2.48 µM); IC50 at 4 h [24]: 14.2 µM; MIC50 (Candida albicans [25]): 2 µg/mL (≈ 4.96 µM); MIC50 (Candida albicans [26]): 4 µg/mL (≈ 9.91 µM); MIC50 (Candida albicans [27]): 0.25 µg/mL (≈ 0.62 µM); MIC (Candida albicans [29]): 0.25 µg/mL (≈ 0.62 µM)
